# Active and inactive are the calls of the source. The calls are words filed in the database; no cut-off is given here.
# How the values were obtained:
# RS4-11 = experiment: Antiproliferative activity against human RS4-11 cells assessed as cell growth inhibition incubated for 72 hrs by resazurin dye based fluorescence analysis; assay type: functional
# U-937 = experiment: Antiproliferative activity against human U-937 cells assessed as cell growth inhibition incubated for 72 hrs by resazurin dye based fluorescence analysis; assay type: functional
# Kasumi 1 = experiment: Antiproliferative activity against human Kasumi 1 cells assessed as cell growth inhibition incubated for 72 hrs by resazurin dye based fluorescence analysis; assay type: functional
# K562 = experiment: Antiproliferative activity against human K562 cells assessed as cell growth inhibition incubated for 72 hrs by resazurin dye based fluorescence analysis; assay type: functional
# [1] = target: Receptor-type tyrosine-protein kinase FLT3 (Homo sapiens) (UniProt P36888); experiment: Inhibition of human FLT3 assessed as residual activity at 100 nM relative to control
# Sequence of Receptor-type tyrosine-protein kinase FLT3 (Homo sapiens) (P36888 whole entry): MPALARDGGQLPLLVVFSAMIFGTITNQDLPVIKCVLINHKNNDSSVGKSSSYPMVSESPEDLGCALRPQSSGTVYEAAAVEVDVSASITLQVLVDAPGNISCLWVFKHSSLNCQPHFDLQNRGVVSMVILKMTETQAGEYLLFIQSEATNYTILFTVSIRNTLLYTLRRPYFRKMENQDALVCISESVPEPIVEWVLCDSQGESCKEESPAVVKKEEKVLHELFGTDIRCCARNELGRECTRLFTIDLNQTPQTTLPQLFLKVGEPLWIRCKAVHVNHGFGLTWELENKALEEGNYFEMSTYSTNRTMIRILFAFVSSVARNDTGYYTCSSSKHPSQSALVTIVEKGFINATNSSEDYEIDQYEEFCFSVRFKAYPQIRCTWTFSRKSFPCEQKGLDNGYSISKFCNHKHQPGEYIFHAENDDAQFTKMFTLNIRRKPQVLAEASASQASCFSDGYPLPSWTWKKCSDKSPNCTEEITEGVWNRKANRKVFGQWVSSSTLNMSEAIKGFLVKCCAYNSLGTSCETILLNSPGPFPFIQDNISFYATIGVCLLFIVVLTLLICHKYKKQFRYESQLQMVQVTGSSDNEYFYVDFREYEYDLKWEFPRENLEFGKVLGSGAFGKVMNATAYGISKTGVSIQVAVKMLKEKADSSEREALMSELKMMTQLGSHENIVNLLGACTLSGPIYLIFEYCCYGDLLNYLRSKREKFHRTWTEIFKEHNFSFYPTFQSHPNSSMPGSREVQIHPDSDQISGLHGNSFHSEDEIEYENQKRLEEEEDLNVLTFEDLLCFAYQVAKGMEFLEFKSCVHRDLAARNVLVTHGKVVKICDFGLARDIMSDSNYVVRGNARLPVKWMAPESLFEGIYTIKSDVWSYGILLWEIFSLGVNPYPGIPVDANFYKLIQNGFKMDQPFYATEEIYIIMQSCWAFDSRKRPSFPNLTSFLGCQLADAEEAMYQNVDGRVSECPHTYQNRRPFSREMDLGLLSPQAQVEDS
# [2] = system: Receptor-type tyrosine-protein kinase FLT3 (Homo sapiens), P36888 [UNDEFINED MUTATION]; experiment: Inhibition of FLT3 autophosphorylation at Y589/591 residue in human MV4-11 cells harboring FLT3-ITD mutation at 0.004 to 2.5 uM incubated for 16 hrs by immunoblot analysis; assay type: cell-based; conditions: dose 0.004-2.5 µM
# Sequence of Receptor-type tyrosine-protein kinase FLT3 (Homo sapiens), P36888 [UNDEFINED MUTATION] (P36888 whole entry, looked up, change not shown): as the sequence (P36888 whole entry) above
# [3] = system: Receptor-type tyrosine-protein kinase FLT3 (Homo sapiens), P36888 [UNDEFINED MUTATION]; experiment: Inhibition of FLT3 in human MV4-11 cells harboring FLT3-ITD mutation assessed as reduction in STAT5 phosphorylation at Y694 residue at 0.004 to 2.5 uM incubated for 16 hrs by immunoblot analysis; assay type: cell-based; conditions: dose 0.004-2.5 µM
# [4] = target: T1, Protein cereblon/Receptor-type tyrosine-protein kinase FLT3 (Homo sapiens) (UniProt P36888+Q96SW2); experiment: PROTAC activity at CRBN/FLT3 in CRBN-deficient human MV4-11 cells assessed as induction of protein degradation at 0.004 to 2.5 uM incubated for 16 hrs by immunoblot analysis; assay type: cell-based; conditions: dose 0.004-2.5 µM
# T1 sequence (P36888 27-993 limits assumed): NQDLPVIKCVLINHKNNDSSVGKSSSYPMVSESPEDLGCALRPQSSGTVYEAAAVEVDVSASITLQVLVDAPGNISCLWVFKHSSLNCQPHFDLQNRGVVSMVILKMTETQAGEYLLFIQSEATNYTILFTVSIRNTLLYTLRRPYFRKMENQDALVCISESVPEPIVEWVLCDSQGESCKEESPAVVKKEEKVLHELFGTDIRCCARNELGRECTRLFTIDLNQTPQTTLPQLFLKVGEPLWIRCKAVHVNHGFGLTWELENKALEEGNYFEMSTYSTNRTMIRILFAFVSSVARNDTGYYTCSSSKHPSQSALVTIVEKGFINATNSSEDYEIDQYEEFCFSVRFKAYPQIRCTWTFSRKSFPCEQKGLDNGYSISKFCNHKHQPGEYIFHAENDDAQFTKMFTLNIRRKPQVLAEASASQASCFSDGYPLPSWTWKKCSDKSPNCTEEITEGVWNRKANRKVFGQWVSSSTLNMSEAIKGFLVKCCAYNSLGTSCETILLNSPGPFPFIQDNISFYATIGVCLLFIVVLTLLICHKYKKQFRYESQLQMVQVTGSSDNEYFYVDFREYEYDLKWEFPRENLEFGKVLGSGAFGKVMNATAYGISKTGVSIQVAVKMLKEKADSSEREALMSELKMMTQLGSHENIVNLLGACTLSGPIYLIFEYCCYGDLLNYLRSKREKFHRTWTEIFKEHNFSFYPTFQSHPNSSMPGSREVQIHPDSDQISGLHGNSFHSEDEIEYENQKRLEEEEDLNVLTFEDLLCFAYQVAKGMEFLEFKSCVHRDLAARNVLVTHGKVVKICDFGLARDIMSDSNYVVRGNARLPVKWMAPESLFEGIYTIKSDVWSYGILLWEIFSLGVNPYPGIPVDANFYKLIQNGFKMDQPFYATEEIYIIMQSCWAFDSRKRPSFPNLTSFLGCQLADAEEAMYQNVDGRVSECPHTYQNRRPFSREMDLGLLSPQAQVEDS
# T1 sequence (Q96SW2 whole entry partner): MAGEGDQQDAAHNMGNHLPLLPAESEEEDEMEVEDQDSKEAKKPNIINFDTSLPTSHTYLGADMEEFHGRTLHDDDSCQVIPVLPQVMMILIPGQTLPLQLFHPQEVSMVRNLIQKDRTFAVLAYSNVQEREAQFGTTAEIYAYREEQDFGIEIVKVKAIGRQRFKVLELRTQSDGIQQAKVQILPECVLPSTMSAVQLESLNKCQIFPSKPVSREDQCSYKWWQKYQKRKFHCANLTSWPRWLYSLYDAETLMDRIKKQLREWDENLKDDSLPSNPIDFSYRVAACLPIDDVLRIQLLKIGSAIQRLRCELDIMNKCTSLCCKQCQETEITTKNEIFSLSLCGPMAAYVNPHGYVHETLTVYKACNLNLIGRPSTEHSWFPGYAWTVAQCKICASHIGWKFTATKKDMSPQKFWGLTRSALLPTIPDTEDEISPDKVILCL
# [5] = target: T2, Protein cereblon/Cyclin-dependent kinase 9 (Homo sapiens) (UniProt P50750+Q96SW2); experiment: PROTAC activity at CRBN/CDK9 in CRBN-deficient human MV4-11 cells assessed as induction of protein degradation at 0.004 to 2.5 uM incubated for 16 hrs by immunoblot analysis; assay type: cell-based; conditions: dose 0.004-2.5 µM
# T2 sequence (P50750 whole entry, looked up): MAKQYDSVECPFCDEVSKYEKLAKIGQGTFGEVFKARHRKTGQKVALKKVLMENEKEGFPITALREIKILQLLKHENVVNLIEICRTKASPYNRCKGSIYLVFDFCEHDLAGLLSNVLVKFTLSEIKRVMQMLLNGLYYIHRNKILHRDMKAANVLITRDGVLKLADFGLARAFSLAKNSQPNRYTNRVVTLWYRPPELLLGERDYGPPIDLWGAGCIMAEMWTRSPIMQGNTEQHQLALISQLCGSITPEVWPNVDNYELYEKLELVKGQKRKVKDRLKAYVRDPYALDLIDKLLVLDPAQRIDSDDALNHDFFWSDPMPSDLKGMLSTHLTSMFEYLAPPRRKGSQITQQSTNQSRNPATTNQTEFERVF
# T2 sequence (Q96SW2 whole entry, looked up): as the sequence (Q96SW2 whole entry partner) above
# [6] = target: Receptor-type tyrosine-protein kinase FLT3 (Homo sapiens) (UniProt P36888); experiment: Stabilization of FLT3 in CRBN-deficient human MV4-11 at 0.004 to 2.5 uM incubated for 16 hrs by immunoblot analysis; assay type: cell-based; conditions: dose 0.004-2.5 µM
# MV4-11 [7] = experiment: Induction of apoptosis in human MV4-11 cells assessed as activation of caspase 7 incubated for 16 hrs in presence of Ac-DEVD-AMC by fluorescence microplate reader analysis; assay type: functional, cell-based; conditions: dose 0.004-2.5 µM
# MV4-11 [8] = experiment: Induction of apoptosis in CRBN-deficient human MV4-11 cells assessed as activation of caspase 3 at 0.004 to 25 uM incubated for 16 hrs in presence of Ac-DEVD-AMC by fluorescence microplate reader analysis; assay type: functional, cell-based; conditions: dose 0.004-25 µM
# MV4-11 [9] = experiment: Induction of cell cycle arrest in human MV4-11 cells assessed as accumulation of cells at G2/M phase at 0.004 uM incubated for 16 hrs by PI staining based flow cytometry analysis (reference value: 10.86%); assay type: functional
# MV4-11 [10] = experiment: Induction of cell cycle arrest in human MV4-11 cells assessed as accumulation of cells at subG1 phase at 0.004 uM incubated for 16 hrs by PI staining based flow cytometry analysis (reference value: 10.51%); assay type: functional
# MV4-11 [11] = experiment: Induction of cell cycle arrest in human MV4-11 cells assessed as accumulation of cells at G1 phase at 0.1 uM incubated for 16 hrs by PI staining based flow cytometry analysis (reference value: 62.97%); assay type: functional
# MV4-11 [12] = experiment: Induction of cell cycle arrest in human MV4-11 cells assessed as accumulation of cells at S phase at 0.1 uM incubated for 16 hrs by PI staining based flow cytometry analysis (reference value: 26.16%); assay type: functional
# MV4-11 [13] = experiment: Induction of cell cycle arrest in human MV4-11 cells assessed as accumulation of cells at G2/M phase at 0.1 uM incubated for 16 hrs by PI staining based flow cytometry analysis (reference value: 10.86%); assay type: functional
# MV4-11 [14] = experiment: Induction of cell cycle arrest in human MV4-11 cells assessed as accumulation of cells at S phase at 0.5 uM incubated for 16 hrs by PI staining based flow cytometry analysis (reference value: 26.16%); assay type: functional
# MV4-11 [15] = experiment: Induction of cell cycle arrest in human MV4-11 cells assessed as accumulation of cells at G2/M phase at 2.5 uM incubated for 16 hrs by PI staining based flow cytometry analysis (reference value: 10.86%); assay type: functional
# MV4-11 [16] = experiment: Induction of cell cycle arrest in CRBN-deficient human MV4-11 cells assessed as accumulation of cells at S phase at 0.02 uM incubated for 16 hrs by PI staining based flow cytometry analysis (reference value: 36.91%); assay type: functional
# MV4-11 [17] = experiment: Induction of cell cycle arrest in CRBN-deficient human MV4-11 cells assessed as accumulation of cells at sub-G1 phase at 0.1 uM incubated for 16 hrs by PI staining based flow cytometry analysis (reference value: 12.52%); assay type: functional
# MV4-11 [18] = experiment: Induction of cell cycle arrest in CRBN-deficient human MV4-11 cells assessed as accumulation of cells at S phase at 0.5 uM incubated for 16 hrs by PI staining based flow cytometry analysis (reference value: 36.91%); assay type: functional
# MV4-11 [19] = experiment: Induction of cell cycle arrest in CRBN-deficient human MV4-11 cells assessed as accumulation of cells at G1 phase at 2.5 uM incubated for 16 hrs by PI staining based flow cytometry analysis (reference value: 54.05%); assay type: functional
# MV4-11 [20] = experiment: Induction of cell cycle arrest in CRBN-deficient human MV4-11 cells assessed as accumulation of cells at G2/M phase at 2.5 uM incubated for 16 hrs by PI staining based flow cytometry analysis (reference value: 9.34%); assay type: functional
# MV4-11 [21] = experiment: Downregulation of Myc gene expression in human MV4-11 cells incubated for 4 hrs by qRT-PCR analysis; assay type: functional, cell-based; conditions: dose 0.004-2.5 µM
# MV4-11 [22] = experiment: Downregulation of Myb gene expression in human MV4-11 cells incubated for 4 hrs by qRT-PCR analysis; assay type: functional, cell-based; conditions: dose 0.004-2.5 µM
# MV4-11 [23] = experiment: Downregulation of FLT3 gene expression in human MV4-11 cells at 0.004 to 2.5 uM incubated for 4 hrs by qRT-PCR analysis; assay type: functional, cell-based; conditions: dose 0.004-2.5 µM
# [24] = target: Receptor-type tyrosine-protein kinase FLT3 (Homo sapiens) (UniProt P36888); experiment: Inhibition of FLT3 autophosphorylation at Y589/591 residue in human MV4-11 cells at 0.1 to 0.5 uM preincubated for 90 mins with 4-hydroxythalidomide followed by compound addition and further incubated for 16 hrs by immunoblot analysis; assay type: cell-based; conditions: dose 0.1-0.5 µM
# [25] = target: Receptor-type tyrosine-protein kinase FLT3 (Homo sapiens) (UniProt P36888); experiment: Inhibition of FLT3 signalling pathway in human MV4-11 cells assessed as reduction in ERK1/2 phosphorylation at T202/Y204 residues at 0.1 to 0.5 uM preincubated for 90 mins with 4-hydroxythalidomide followed by compound addition and further incubated for 16 hrs by immunoblot analysis; assay type: cell-based; conditions: dose 0.1-0.5 µM
# [26] = target: T1, Protein cereblon/Receptor-type tyrosine-protein kinase FLT3 (Homo sapiens); experiment: PROTAC activity at CRBN/FLT3 in human MV4-11 cells at 0.1 to 0.5 uM preincubated for 90 mins with MG132 followed by compound addition and further incubated for 16 hrs by immunoblot analysis; assay type: cell-based; conditions: dose 0.1-0.5 µM
# [27] = target: T2, Protein cereblon/Cyclin-dependent kinase 9 (Homo sapiens); experiment: PROTAC activity at CRBN/CDK9 in human MV4-11 cells at 0.1 to 0.5 uM preincubated for 90 mins with MG132 followed by compound addition and further incubated for 16 hrs by immunoblot analysis; assay type: cell-based; conditions: dose 0.1-0.5 µM
smiles,measurement,setting,value
NC1CCC(Nc2nc(Nc3ccc(N4CCN(CCOCCOCCNC(=O)CNc5cccc6c5C(=O)N(C5CCC(=O)NC5=O)C6=O)CC4)cc3)c3ncn(C4CCCC4)c3n2)CC1 (stereo unspecified),GI50,RS4-11,1.01 µM
same,GI50,U-937,9.51 µM
same,GI50,Kasumi 1,> 10 µM
same,GI50,K562,> 10 µM
same,Activity,[1],2%
same,inhibition,[2],Active
same,inhibition,[3],Active
same,Activity,[4],inactive
same,Activity,[5],inactive
same,Activity,[6],Active
same,Activity,MV4-11 [7],Dose-Dependent Effect
same,Activity,MV4-11 [8],inactive
same,Activity,MV4-11 [9],9.03%
same,Activity,MV4-11 [10],11.53%
same,Activity,MV4-11 [11],89.61%
same,Activity,MV4-11 [12],6.42%
same,Activity,MV4-11 [13],3.96%
same,Activity,MV4-11 [14],18.55%
same,Activity,MV4-11 [15],7.79%
same,Activity,MV4-11 [16],17.04%
same,Activity,MV4-11 [17],17.71%
same,Activity,MV4-11 [18],5.13%
same,Activity,MV4-11 [19],89.4%
same,Activity,MV4-11 [20],4.56%
same,Activity,MV4-11 [21],Dose-Dependent Effect
same,Activity,MV4-11 [22],Dose-Dependent Effect
same,Activity,MV4-11 [23],inactive
same,inhibition,[24],Active
same,inhibition,[25],Active
same,Activity,[26],inactive
same,Activity,[27],inactive

# Reference: ChEMBL document CHEMBL5352441, “Modulation of FLT3-ITD and CDK9 in acute myeloid leukaemia cells by novel proteolysis targeting chimera (PROTAC)” (2022)
